Results: patent US20150132404A1, “Equine feed for the reduction of ulcers in performance horses” (priority 2013, published 2015)

System: horses
Experiment: Observation of horses fed the feed supplement mixture (testing of the product)
Assay type: in vivo, horse
Description: A dry horse feed supplement for the prevention and treatment of ulcers in horses, especially those involved in performance activities, provides a feed supplement mixture comprising a quantity of forage or filler product; a quantity of grain product, a quantity of protein product, a quantity of roughage product, essential vitamins and trace minerals, a yeast product, fat, molasses, a measured quantity of thiamine (Vitamin B1) and a measured quantity of sodium bicarbonate. The feed supplement mixture is fed to a horse based upon the total weight of the horse, in an amount between 0.50-1.50% of the body weight, depending upon the level of work and activity stress of the horse.
The feed composition ingredients, delivered in the parameters set above with regard to content quantity by percentage includes the ingredients list, in order of most ingredient quantity to least ingredients quantity, provides the feed containing no less than 14% crude protein, 6.5% crude fat, a no more than 22% crude fiber, no less than 0.6% and no more than 1% calcium, no less than 0.3% phosphorus, as well as quantities of zinc, copper, selenium, Vitamin A and Vitamin E. There are special blends suited for older performance horses and other blends for various younger performance horses. […]

| SMILES | pH level in the digestive tract (sodium bicarbonate at the recommended levels in the feed) | effect on demeanor / stress level of the horse (fed in the feed supplement mixture at 0.5-1.5% of body weight) |
| --- | --- | --- |
| O=C([O-])O.[Na+] [sodium bicarbonate] | acts as a buffer and maintains an optimal ph level in the digestive tract | – |
| Cc1ncc(C[n+]2csc(CCO)c2C)c(N)n1 [thiamine] | – | calming effect on horses |
